Here are results for ten molecules from patent publication US8742113B2, “Furanone derivative” (SBI Biotech Co., Ltd., priority 2011, dated 2014).

The target in assay [1] is human Cdc7/human ASK complex protein (Homo sapiens (Human), UniProt O00311). Kind of assay: Inhibitory effect on Cdc7 protein kinase (MSA assay kit). The format is biochemical. As to the method: [Inhibitory Effect on Cdc7 Protein Kinase]
Measurement of kinase activity was carried out using an MSA assay kit (QuickScout Screening Assist™ Kit, Carna Biosciences, Inc.).
Assay buffer (20 mM HEPES, 0.01% Triton X-100™, 2 mM dithiothreitol, pH 7.5) was used to prepare a substrate mixture solution comprising 4 μM of a kinase-reaction substrate (FITC-labeled MCM2 peptide), 40 mM MgCl2, and 20 μM ATP.
The enzyme supplied in the kit (human Cdc7/human ASK complex protein) was diluted in the assay buffer so as to be at 7 nM, thereby preparing an enzyme solution.
The stock solution of each test compound was diluted in DMSO to prepare diluted DMSO solutions of 10 concentrations (0.00003 mM, 0.0001 mM, 0.0003 mM, 0.001 mM, 0.003 mM, 0.01 mM, 0.03 mM, 0.1 mM, 0.3 mM, 1 mM), each of which was further diluted 25 times in the assay buffer to make a drug solution (a solution containing 4% DMSO).
The kinase reaction was performed in wells of a polypropylene 384-well plate in which 5 μl of each of the drug solutions or of a solvent (assay buffer containing 4% DMSO), 5 μl of the substrate mixture solution, and 10 μl of the enzyme solution were mixed. The assay buffer, instead of the enzyme solution, was added to blank wells. After the reaction at room temperature for 5 hours, 60 μl of the termination buffer supplied in the kit was added to each well to stop the reaction. The percent inhibition of each reaction was determined using a LabChip EZ Reader II system (manufactured by Caliper Life Sciences), according to the protocol provided with the assay kit. In this case, the peak heights of the separated substrate and the phosphorylated substrate were represented as S and P, respectively, and the percent inhibition (%) by a tested compound was calculated according to the following formula: Percent inhibition(%)=(1−(C−A)/(B−A))×100 wherein A denotes P/(P+S) for a blank well, B denotes P/(P+S) for a solvent well, and C denotes P/(P+S) for a compound-added well.
The IC50 value of a tested compound was calculated by regression analysis of the percent inhibition values versus the (logarithmic) concentrations of the tested compound.

The subject of assay [2] is MCM2 phosphorylation in COLO205 cells. Kind of assay: Inhibitory effect on MCM2 phosphorylation using cells (Western blot). As to conditions: Homo sapiens, COLO 205, 0.1 μM test compound, 24 hours, class by percent phosphorylation of MCM2, read-out: Test Example 2 Inhibitory effect on MCM2 phosphorylation. The format is cell-based. As to the method:
[Inhibitory Effect on Phosphorylation Using Cells]
COLO205 cells derived from human colon adenocarcinoma (RCB2127, RIKEN BRC) were cultured in 10 cm dishes using RPMI-1640 medium (SIGMA, R8758) supplemented with 10% FCS (Equitech-bio) and 5% penicillin/streptomycin (GIBCO, 15140). After the cells were cultured to a confluence of 70 to 90%, the medium was removed, and the cells were treated with trypsin (2 mL, TrypLE Express, GIBCO, 12604-021) and then harvested using a new medium.
COLO205 cells were seeded in 6-well plates (FALCON, 35046) to 2.5×10^5 cells (1 ml) per well and cultured overnight in a 5% CO2 incubator. A drug solution, which was prepared by adding 1.5 μl of a 0.1-mM stock solution in DMSO of a test compound to 500 μl of medium, was added to each well (to a final drug concentration of 0.1 μM), and then cultured for another 24 hours.
Cells were cultured for 24 hours in the presence of a test compound, harvested using a similar way as described above, washed with PBS, and then pelletized and stored at −80° C. The frozen cells were thawed, subsequently suspended immediately in 2×SDS-PAGE electrophoresis buffer (1×10^5 cells per 10 μl), and heated at 95° C. for 10 minutes, leading to the dissolution and denaturation of the proteins. The resulting sample solutions were subjected to SDS-PAGE using a 5-20% gradient acrylamide gel (e-PAGEL (5-20%), ATTO, E-T520L). After the electrophoresis was completed, the gel was immersed in tris-glycine buffer supplemented with 20% methanol, and the proteins in the gel were transferred onto a PVDF membrane (MILLIPORE, Immobilon-P, IPVH00010) using a semi-dry transfer apparatus (TRNS-BLOT SD SEMI-DRY […] CELL, BIO RAD).
The transferred PVDF membrane was blocked with 5% skim milk (Difco Skim Milk, BD, 232100), and then subjected to reaction with an anti-MCM2 goat antibody (N-19, Santa Cruz, sc-9839) or anti-phosphorylated MCM2 rabbit antibody (S53) (Bethyl, A300-756A) as a primary antibody and additionally with an anti-α tubulin mouse antibody (Clone DM 1A, SIGMA, 9026) as an internal control. Each band was detected by chemiluminescence using an HRP-labeled anti-goat IgG donkey antibody (Santa Cruz, sc2020), anti-rabbit IgG sheep antibody (Roche, 12015218001), or anti-mouse IgG donkey antibody (Jackson ImmunoResearch, 715-035-151) as a secondary antibody. The combinations of and the diluted concentrations of the primary and secondary antibodies were as indicated below.
The bands which were detected were normalized using the amount of endogenous α-tubulin as a reference, and the percent phosphorylation of MCM2 was calculated for each of the tested compounds. Their inhibitory effects on MCM2 phosphorylation were indicated by a triple asterisk (***) in the case where the percent phosphorylation of MCM2 was less than 20%, by a dual asterisk (**) in the case where the percent phosphorylation of MCM2 was not less than 20% and less than 50%, and by a single asterisk (*) in the case where the percent phosphorylation of MCM2 was not less than 50% and less than 70%.
(In general: In western blotting, separated proteins are transferred to a membrane and probed.)

Where [3] appears, read: human Cdc7/human ASK complex, FITC-labeled MCM2 peptide substrate, reaction 5 hours at room temperature, read-out: Test Example 1 Cdc7 IC50 value.

Each structure is given as a SMILES string. Like-named read-outs stand apart in the source and are kept apart here.

Sequence of human Cdc7/human ASK complex protein (O00311 whole entry): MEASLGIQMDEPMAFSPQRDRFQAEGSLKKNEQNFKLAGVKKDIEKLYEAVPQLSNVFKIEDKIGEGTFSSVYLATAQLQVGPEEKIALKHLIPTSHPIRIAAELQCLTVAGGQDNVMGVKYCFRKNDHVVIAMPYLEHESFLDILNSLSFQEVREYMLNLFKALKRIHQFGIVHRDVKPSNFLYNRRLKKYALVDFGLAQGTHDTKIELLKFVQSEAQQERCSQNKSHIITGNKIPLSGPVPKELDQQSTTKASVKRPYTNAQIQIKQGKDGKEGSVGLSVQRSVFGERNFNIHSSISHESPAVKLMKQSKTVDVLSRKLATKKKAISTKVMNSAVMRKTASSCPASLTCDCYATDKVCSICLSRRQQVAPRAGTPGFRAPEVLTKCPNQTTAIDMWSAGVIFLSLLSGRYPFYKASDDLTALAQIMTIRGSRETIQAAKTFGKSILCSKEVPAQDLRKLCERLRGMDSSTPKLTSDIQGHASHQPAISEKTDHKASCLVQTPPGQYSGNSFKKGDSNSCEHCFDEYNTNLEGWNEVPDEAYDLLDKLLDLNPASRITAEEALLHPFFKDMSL
Sequence of human Cdc7/human ASK complex protein (Q9UBU7 whole entry partner): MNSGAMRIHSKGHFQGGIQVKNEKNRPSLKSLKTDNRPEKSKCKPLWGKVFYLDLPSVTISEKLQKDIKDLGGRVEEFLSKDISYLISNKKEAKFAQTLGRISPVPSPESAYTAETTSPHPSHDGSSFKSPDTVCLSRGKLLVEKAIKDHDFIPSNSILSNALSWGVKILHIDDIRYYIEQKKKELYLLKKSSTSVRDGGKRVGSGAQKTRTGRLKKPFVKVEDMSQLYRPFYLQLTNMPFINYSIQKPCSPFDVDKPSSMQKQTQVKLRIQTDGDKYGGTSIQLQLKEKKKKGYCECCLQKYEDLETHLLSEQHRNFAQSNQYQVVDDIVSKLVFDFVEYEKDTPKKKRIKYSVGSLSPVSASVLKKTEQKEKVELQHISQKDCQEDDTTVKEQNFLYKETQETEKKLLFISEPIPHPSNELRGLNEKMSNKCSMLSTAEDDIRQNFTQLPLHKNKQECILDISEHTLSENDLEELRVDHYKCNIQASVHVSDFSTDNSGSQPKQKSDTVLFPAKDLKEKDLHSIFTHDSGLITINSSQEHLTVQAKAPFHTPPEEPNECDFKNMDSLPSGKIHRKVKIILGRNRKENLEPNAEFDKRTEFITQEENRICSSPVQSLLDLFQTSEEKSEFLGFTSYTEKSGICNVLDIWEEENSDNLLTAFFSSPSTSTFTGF

`CCOC(=O)C1=C(NN2CCOCC2)O/C(=C\c2c[nH]c3ncccc23)C1=O` [Example 142, Ethyl 5-[(1H-pyrrolo[2,3-b]pyridin-3-yl)methylene]-2-(morpholinoamino)-4-oxo-4,5-dihydrofuran-3-carboxylate]: in assay [1] (setting [3]), the IC50 was found to be 3 nM. Moreover, the inhibition at 0.1 µM in assay [2] is 20 to 50%.
For `Cc1cc(OCCO)ccc1NC1=C(C(=O)OC(C)C)C(=O)/C(=C/c2c[nH]c3ncccc23)O1` [Example 157, Isopropyl 5-[(1H-pyrrolo[2,3-b]pyridin-3-yl)methylene]-2-{[4-(2-hydroxyethoxy)-2-methylphenyl]amino}-4-oxo-4,5-dihydrofuran-3-carboxylate] the same measures were 3 nM and 20 to 50%.
For `COCCOC(=O)C1=C(Nc2ccccc2Cl)O/C(=C\c2c[nH]c3ncccc23)C1=O` [Example 173, 2-Methoxyethyl 5-[(1H-pyrrolo[2,3-b]pyridin-3-yl)methylene]-2-[(2-chlorophenyl)amino]-4-oxo-4,5-dihydrofuran-3-carboxylate], in that order: 3 nM and below 20%.
For the molecule `O=C1C=C(NC2CCCCCC2)O/C1=C\c1c[nH]c2ncccc12` [Example 226, 2-[(1H-Pyrrolo[2,3-b]pyridin-3-yl)methylene]-5-(cycloheptylamino)furan-3(2H)-one], the IC50 in assay [1] (setting [3]) came to 4 nM. In assay [2], the inhibition at 0.1 µM is below 20%.
Consider `Cc1cc(F)ccc1NC1=CC(=O)/C(=C/c2c[nH]c3ncccc23)O1` [Example 233, 2-[(1H-Pyrrolo[2,3-b]pyridin-3-yl)methylene]-5-[(4-fluoro-2-methylphenyl)amino]furan-3(2H)-one], for which the IC50 in assay [1] (setting [3]) was 2 nM. Besides, the inhibition at 0.1 µM in assay [2] was 20 to 50%.
In the case of `O=C1C=C(Nc2ccc3[nH]ncc3c2)O/C1=C\c1c[nH]c2ncccc12` [Example 239, 2-[(1H-Pyrrolo[2,3-b]pyridin-3-yl)methylene]-5-[(5-indazolyl)amino]furan-3(2H)-one], inhibition in assay [1] was half-maximal at 1 nM (IC50). Further, the inhibition at 0.1 µM in assay [2] is 20 to 50%.
For `Cc1ccsc1CNC1=CC(=O)/C(=C/c2c[nH]c3ncccc23)O1` [Example 242, 2-[(1H-Pyrrolo[2,3-b]pyridin-3-yl)methylene]-5-{[(3-methyl-2-thienyl)methyl]amino}furan-3(2H)-one] the same measures were 1 nM and below 20%.
As for `CCOC(=O)C1=C(N2CCc3ccc(OC)cc3C2)O/C(=C\c2c[nH]c3ncccc23)C1=O` [Example 244, Ethyl 5-[(1H-pyrrolo[2,3-b]pyridin-3-yl)methylene]-2-(7-methoxy-3,4-dihydroisoquinolin-2(1H)-yl)-4-oxo-4,5-dihydrofuran-3-carboxylate], in assay [1] (setting [3]), the IC50 was 4 nM. In assay [2], the inhibition at 0.1 µM is below 20%.
With `CC(C)OC(=O)C1=C(NN2CCOCC2)O/C(=C\c2c[nH]c3ncccc23)C1=O` [Example 245, Isopropyl 5-[(1H-pyrrolo[2,3-b]pyridin-3-yl)methylene]-2-(morpholinoamino)-4-oxo-4,5-dihydrofuran-3-carboxylate], in assay [1] (setting [3]), the IC50 came out at 8 nM. In addition, the inhibition at 0.1 µM in assay [2] was below 20%.
As to `CCOC(=O)C1=C(NN2CCN(CC(F)(F)F)CC2)O/C(=C\c2c[nH]c3ncccc23)C1=O` [Example 246, Ethyl 5-[(1H-pyrrolo[2,3-b]pyridin-3-yl)methylene]-4-oxo-2-{[4-(2,2,2-trifluoroethyl)piperazinyl]amino}-4,5-dihydrofuran-3-carboxylate], the IC50 in assay [1] (setting [3]) was 8 nM. For the same molecule, the inhibition at 0.1 µM in assay [2] was below 20%.

The IC50 is the concentration that gives 50% inhibition.
